Reference: US5508437A, “Analogs of tyrosine sulfate or tyrosine phosphate containing peptides” (Hoffmann-La Roche Inc., priority 1993, dated 1996)
Starred links: 1 amine or outer side, 2 acyl side, 3 side chain; linkers in the order of their positions; H or OH if unused. Positions of bridges follow the written chain, without caps; N, C: chain ends. Non-standard residues stand in square brackets, D forms with d. Residues, ends and D or L forms follow the SMILES beside them. *: point of attachment. Propanoyl(3-(4-HOOCCH2-Ph)) = O=C(O)Cc1ccc(CCC(=O)*)cc1; X4 = O=C([C@@H](Cc1ccc(Cc2nn[nH]n2)cc1)N[*:1])[*:2]; X6 = O=C([C@H](Cc1ccc(Cc2nnn[nH]2)cc1)N[*:1])[*:2]; X9 = O=C(C(Cc1ccc(-c2nnn[nH]2)cc1)N[*:1])[*:2]; X10 = O=C(CCc1ccc(-c2nn[nH]n2)cc1)*; X2 = O=C(CCc1ccc(Cc2nnn[nH]2)cc1)*; NMeF = CN[C@@H](Cc1ccccc1)C(=O)O; Nle = CCCC[C@H](N)C(=O)O

Key:
[1] = target: T1, Bovine Striatum (3H-CCK-8-(SO3 H) receptor binding) (Bos taurus, UniProt P79266); test: In vitro receptor binding assay, 3H-CCK-8-(SO3H), bovine striatum homogenate; settings: 3H-CCK-8-(SO3H) 0.15 nM, 30 min at 25° C., bovine striatum homogenate; read-out: Bovine Striatum IC50 (concentration to inhibit 50% of specific 3H-CCK-8-(SO3H) binding)
T1 construct: tissue homogenate (striatum approximately 0.26 mg protein in 2 mL final volume); from tissue; host or cells: bovine striatum membrane homogenate
T1 sequence (P79266 1-454): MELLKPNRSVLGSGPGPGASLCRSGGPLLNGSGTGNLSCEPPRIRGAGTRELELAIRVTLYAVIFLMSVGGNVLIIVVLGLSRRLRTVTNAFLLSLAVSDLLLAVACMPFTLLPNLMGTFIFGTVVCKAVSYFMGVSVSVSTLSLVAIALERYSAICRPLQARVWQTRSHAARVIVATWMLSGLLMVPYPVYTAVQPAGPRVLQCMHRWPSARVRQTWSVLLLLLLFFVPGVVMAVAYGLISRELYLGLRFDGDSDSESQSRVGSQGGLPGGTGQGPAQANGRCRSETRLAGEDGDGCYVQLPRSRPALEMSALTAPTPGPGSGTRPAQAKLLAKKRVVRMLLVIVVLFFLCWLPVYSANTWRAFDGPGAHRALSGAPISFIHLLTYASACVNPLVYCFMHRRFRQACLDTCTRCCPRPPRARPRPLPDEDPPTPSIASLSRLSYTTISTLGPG
Experimental: (§1) Frozen bovine striatum (approx. 5 g) or fresh rat pancreas (approx. 5 g) cleaned of fat and extraneous tissue were homogenized in HEPES buffer #1 (10 mM HEPES+130 mM NaCl+5 mM MgCl2, pH 7.4) using 35 parts buffer per 1 part tissue on a wet weight/volume basis (approx. 175 mL). The tissue was homogenized 2×for approx. 15 sec. at 0° C. using a Polytron homogenizer at a setting of 6. The tissue was isolated by centrifugation at 48,000× g for 10 min at 0° C. The resulting tissue pellet was resuspended in HEPES buffer #2 (10 mM HEPES+130 mM NaCl+5 mM MgCl2 +1 mg/L phenylmethanasulfonyl fluoride (PMSF)+200 mg/L Bacitracin): 1 part striatal tissue (original wet weight) per 80 parts buffer and 1 part pancreas tissue (original wet weight) per 500 to 1000 parts buffer.
(§2) Incubation was initiated by combining various concentrations of native CCK-8 or peptides of the invention with ^3 H-CCK-8-(SO3 H) (final conc.=0.15 nM) and tissue homogenate (striatum approximately 0.26 mg protein in 2 mL final volume; pancreas approximately 0.100 mg protein in 1 mL final volume). Samples were incubated for 30 min at 25° C. and the incubation terminated by pouring the mixture onto a pre-wetted Whatman GF/B filter on a Sandbeck Vacuum Filtration Manifold. The incubation tubes were washed with 2×3 mL of ice-cold HEPES Buffer #2 and the wash filtered through the GF/B filter. The filter was air dried for 10 min and then placed in a scintillation vial with 12 mL of DuPont/NEN Aquasol scintillation cocktail. The vials were shaken overnight and then counted using a liquid scintillation spectrometer. Non-specific binding was determined in the presence of 1 micromolar native CCK-8 and subtracted from all samples to determine specific binding. The concentration of peptide necessary to inhibit 50% of total specific H-CCK-8-(SO3 H) binding (IC50 value) was determined by log-probit analysis.

[2] = target: T2, rat pancreas (3H-CCK-8-(SO3 H) receptor binding) (Rattus norvegicus, UniProt P30551); test: In vitro receptor binding assay, 3H-CCK-8-(SO3H), rat pancreas homogenate; settings: 3H-CCK-8-(SO3H) 0.15 nM, 30 min at 25° C., rat pancreas homogenate; read-out: Rate Pancreas IC50 (concentration to inhibit 50% of specific 3H-CCK-8-(SO3H) binding)
T2 construct: pancreas approximately 0.100 mg protein in 1 mL final volume; from tissue; host or cells: rat pancreas membrane homogenate
T2 sequence (P30551 1-444): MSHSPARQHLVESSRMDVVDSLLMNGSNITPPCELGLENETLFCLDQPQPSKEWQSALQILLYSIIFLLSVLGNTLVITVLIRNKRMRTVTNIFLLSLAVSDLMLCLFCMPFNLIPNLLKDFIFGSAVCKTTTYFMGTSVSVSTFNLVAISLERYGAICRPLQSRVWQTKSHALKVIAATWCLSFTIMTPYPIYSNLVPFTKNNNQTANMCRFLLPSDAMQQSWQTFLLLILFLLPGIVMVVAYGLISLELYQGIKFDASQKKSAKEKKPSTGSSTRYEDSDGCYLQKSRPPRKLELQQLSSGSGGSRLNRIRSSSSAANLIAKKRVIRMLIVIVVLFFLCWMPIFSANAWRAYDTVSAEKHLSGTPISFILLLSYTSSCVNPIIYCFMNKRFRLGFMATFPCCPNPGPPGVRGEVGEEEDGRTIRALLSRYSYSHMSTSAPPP
Experimental: as §1, §2

[3] = system: Male Sprague-Dawley (CD) rats; test: Two-Meal Feeding Assay; format: in vivo; settings: rat
Experimental: Male Sprague-Dawley (CD) rats weighing 180-200 grams (Charres River Breeding Laboratories) were acclimated to a 12 h light/dark cycle (6 a.m. to 6 p.m.) in a room kept at 22° C. They were subsequently fasted for two days, weighed, placed in individual cages, and a four-day period of meal training was begun. During this time the rats were given ground laboratory chow (Purina Lab Chow) in jars for one hour from 9:00 a.m. until 10:00 a.m., the jars were removed from 10:00 a.m. to 12:00 p.m., and placed back in the cages from 12:00 until 1:00 p.m. Under this `1-2-1` meal feeding regime, most rats learn to eat approximately as much per day during the two hours they have access to food as rats which have food ad libitum over the entire 24-hour day. On the fourth day, the rats were weighed again, and any which lost more than five grams body weight were excluded from the test. The animals were then distributed into experimental (n=5 to 6) and control groups (n=6-12), but not matched for body weight.
Peptides of the invention were suspended either in saline, if soluble, or in 0.5% DMSO/saline, if insoluble, at concentrations of 0 to 320 μg/mL/kg body weight and were administered intraperitoneally 15 min before the first meal on day 5 of meal feeding. The rats were then given their meals as they had been during the previous four days, and the food cups were weighed both before and after each meal to determine food consumption. Food intake was expressed as a mean and standard error of the mean in percent of control values for the various groups. The treated groups were compared to the control groups by t-test analysis.

[4] = dose 32 Microgram/kg intraperitoneally 15 min before first meal
[5] = dose 320 Microgram/kg intraperitoneally 15 min before first meal
[6] = dose 10 Microgram/kg intraperitoneally 15 min before first meal
[7] = dose 100 Microgram/kg intraperitoneally 15 min before first meal

Row | Compound | IC50 [1] | IC50 [2] | further results
1 | CSCC[C@@H]1NC(=O)[C@H](Cc2c[nH]c3ccccc23)NC(=O)CNC(=O)[C@@H](NC(=O)C(Cc2ccc(-c3nnn[nH]3)cc2)NC(C)=O)CCCCNC(=O)C[C@@H](C(=O)N(C)[C@@H](Cc2ccccc2)C(N)=O)NC1=O (some centres unmarked) [Example 57] (Ac-[X9]KGWMD[NMeF]-NH2; lactam 2-6) | 580 nM | 1100 nM | Food Intake 1st Meal [3, 4]: 75 ± 6 % of Control; Food Intake 2nd Meal [3, 4]: 160 ± 14 % of Control; Food Intake 1st Meal [3, 5]: 36 ± 3 % of Control; Food Intake 2nd Meal [3, 5]: 148 ± 6 % of Control
2 | CCCC[C@H](NC(=O)[C@H](Cc1c[nH]c2ccccc12)NC(=O)CNC(=O)[C@H](CCCC)NC(=O)[C@@H](Cc1ccc(Cc2nn[nH]n2)cc1)NC(C)=O)C(=O)N[C@@H](CC(=O)O)C(=O)N(C)[C@@H](Cc1ccccc1)C(N)=O [Example 64, Ac-(D)-Phe(4-CH2 -tetrazole)-Nle-Gly-Trp-Nle-Asp-N-methyl-Phe-NH2] (Ac-[X4][Nle]GW[Nle]D[NMeF]-NH2) | – | – | Food Intake 1st Meal [3, 6]: 112 ± 10 % of Control; Food Intake 2nd Meal [3, 6]: 102 ± 9 % of Control; Food Intake 1st Meal [3, 4]: 79 ± 5 % of Control; Food Intake 2nd Meal [3, 4]: 148 ± 12 % of Control; Food Intake 1st Meal [3, 7]: 56 % of Control; Food Intake 2nd Meal [3, 7]: 173 ± 5 % of Control; Food Intake 1st Meal [3, 5]: 21 ± 6 % of Control; Food Intake 2nd Meal [3, 5]: 207 % of Control
3 | CCCC[C@H](NC(=O)[C@H](Cc1ccc(Cc2nnn[nH]2)cc1)NC(C)=O)C(=O)NCC(=O)N[C@@H](Cc1c[nH]c2ccccc12)C(=O)N[C@@H](CCCC)C(=O)N[C@@H](CC(=O)O)C(=O)N(C)[C@@H](Cc1ccccc1)C(N)=O [Example 65, Ac-Phe(4-CH2 -tetrazole) -Nle-Gly-Trp-Nle-Asp- N-methyl-Phe-NH2] (Ac-[X6][Nle]GW[Nle]D[NMeF]-NH2) | 69 nM | 260 nM | –
4 | CCCC[C@H](NC(=O)CCc1ccc(Cc2nnn[nH]2)cc1)C(=O)NCC(=O)N[C@@H](Cc1c[nH]c2ccccc12)C(=O)N[C@@H](CCCC)C(=O)N[C@@H](CC(=O)O)C(=O)N(C)[C@@H](Cc1ccccc1)C(N)=O [Example 66, Desamino-Phe(4-CH2 -tetrazole)-Nle-Gly-Trp-Nle-Asp-N-methyl-Phe-NH2] (X2-[Nle]GW[Nle]D[NMeF]-NH2) | 160 nM | 710 nM | –
5 | CSCC[C@@H]1NC(=O)[C@H](Cc2c[nH]c3ccccc23)NC(=O)CNC(=O)[C@@H](NC(=O)CCc2ccc(-c3nn[nH]n3)cc2)CCCCNC(=O)C[C@@H](C(=O)N(C)[C@@H](Cc2ccccc2)C(N)=O)NC1=O [Example 68] (X10-KGWMD[NMeF]-NH2; lactam 1-5) | 1400 nM | 2900 nM | –
6 | CSCC[C@H](NC(=O)CCc1ccc(CC(=O)O)cc1)C(=O)NCC(=O)N[C@@H](Cc1c[nH]c2ccccc12)C(=O)N[C@@H](CCSC)C(=O)N[C@@H](CC(=O)O)C(=O)N(C)[C@@H](Cc1ccccc1)C(N)=O [Example 69, Desamino-Phe(4-CH2 -COOH)-Met-Gly-Trp-Met-Asp-N-methyl-Phe-NH2] ({Propanoyl(3-(4-HOOCCH2-Ph))}-MGWMD[NMeF]-NH2) | 3.2 nM | 1.8 nM | –
7 | CCCC[C@H](NC(=O)CCc1ccc(CC(=O)O)cc1)C(=O)NCC(=O)N[C@@H](Cc1c[nH]c2ccccc12)C(=O)N[C@@H](CCCC)C(=O)N[C@@H](CC(=O)O)C(=O)N(C)[C@@H](Cc1ccccc1)C(N)=O [Example 70, Desamino-Phe(4-CH2 COOH)-Nle-Gly-Trp-Nle-Asp-N-methyl-Phe-NH2] ({Propanoyl(3-(4-HOOCCH2-Ph))}-[Nle]GW[Nle]D[NMeF]-NH2) | 200 nM | 330 nM | –
8 | CCCC[C@H](NC(=O)CCc1ccc(CC(=O)O)cc1)C(=O)N[C@H](C)C(=O)N[C@@H](Cc1c[nH]c2ccccc12)C(=O)N[C@@H](CCCC)C(=O)N[C@@H](CC(=O)O)C(=O)N(C)[C@@H](Cc1ccccc1)C(N)=O [Example 71, Desamino-Phe(4-CH2 COOH)-Nle-(D)Ala-Trp-Nle- Asp-N-methyl-Phe-NH2] ({Propanoyl(3-(4-HOOCCH2-Ph))}-[Nle][dA]W[Nle]D[NMeF]-NH2) | 1400 nM | 1800 nM | –
